The assay deals with carrageenan induced paw edema. The experiment in a line: Anti-inflammatory activity: acute carrageenan induced paw edema in rats. Format: in vivo, Wister rats. To be noted: 10 mg kg^−1 indomethacin mol equivalent; for % inhibition of edema / Mean edema thickness: intraperitoneally; for Mean edema thickness: mean ± SE; for Potency (% inhibition of edema relative to that of indomethacin reference standard): at 4 h effect. Here is the method:
The anti-inflammatory activity of the tested compounds was determined in vivo by the acute carrageenan induced paw edema standard method in rats. See, Naumov, et al., Bioorg. Med. Chem. Lett, 25: 2314-2320 (2015), Tiwari, et al., Org. Biomol. Chem, 12: 7238-7249 (2014), Girgis, et al., Eur. J. Med. Chem, 50: 1-8 (2012), Barsoum, et al., Eur. J. Med. Chem, 44: 2172-2177 (2009), Girgis, et al., Eur. J. Med. Chem, 44: 1972-1977 (2009), Girgis, et al., Eur. J. Med. Chem, 44: 1257-1264 (2009), Girgis, et al., Eur. J. Med. Chem, 44: 91-100 (2009), Girgis, et al., Eur. J. Med. Chem, 43: 2116-2121 (2008), Girgis, et al., Bioorg. Med. Chem, 14: 8527-8532 (2006), and Barsoum, et al., Bioorg. Med. Chem, 14: 3929-3937 (2006).
Adult Wister rats of either sex (pregnant female animals were excluded) weighing 120-150 g were divided into 18 groups of 6 animals each. […] The control group was given DMSO only. Carrageenan paw edema was induced by subcutaneous injection of freshly prepared 1% solution of carrageenan in saline (0.9%, 0.1 ml per rat) into subplantar tissue of the right hind paw of rats. The thickness of the paw was measured (in mm) after successive time intervals (1, 2,3,4 and 24 h) and compared with the initial hind paw thickness of each rat for determining the edema thickness. Data were collected, checked, revised and analyzed. Quantitative variables from normal distribution were expressed as means±SE “standard error”. The anti-inflammatory activity was expressed as percentage inhibition of edema thickness in treated animals in comparison with the control group according to eqn. (1)
Where, Vc and Vt are the mean of edema paw thickness for the control and tested compound treated animal groups, respectively.
(In general: The carrageenan paw model is a standard test of acute inflammation.)

For the molecule `COc1cc(/C=C/C(=O)CC(=O)/C=C/c2ccc(OC(=O)[C@@H](N)CCSC)c(OC)c2)ccc1OC(=O)[C@@H](N)CCSC.Cl.Cl` [Compound 39], the “Potency (% inhibition of edema relative to that of indomethacin reference standard)” value is reported as 111. For the setting “1 h”, the “% inhibition of edema” value stood at 64% and the Mean edema thickness was 0.86 ± 0.13 mm. Also, where the note is “2 h”, the “% inhibition of edema” value is reported as 70% and the Mean edema thickness is 0.62 ± 0.11 mm. For the same molecule, for the setting “3 h”, the “% inhibition of edema” value is 73% and the Mean edema thickness is reported as 0.49 ± 0.07 mm. In addition, for the setting “4 h”, the “% inhibition of edema” value turned out to be 97% and the Mean edema thickness amounted to 0.04 ± 0.01 mm. In addition, under “24 h”, the “% inhibition of edema” value was 36% and the Mean edema thickness stood at 0.53 ± 0.03 mm.

Regarding `CC[C@H](C)[C@H](NC(=O)OC(C)(C)C)C(=O)Oc1ccc(/C=C/C(=O)CC(=O)/C=C/c2ccc(OC(=O)[C@@H](NC(=O)OC(C)(C)C)[C@@H](C)CC)c(OC)c2)cc1OC` [Compound 31], the “Potency (% inhibition of edema relative to that of indomethacin reference standard)” value was 59. Moreover, where the note is “1 h”, the “% inhibition of edema” value is on record as 33% and the Mean edema thickness is given as 1.61 ± 0.11 mm. For the setting “2 h”, the “% inhibition of edema” value was found to be 38% and the Mean edema thickness worked out at 1.27 ± 0.07 mm. Where the note is “3 h”, the “% inhibition of edema” value stood at 49% and the Mean edema thickness is on record as 0.91 ± 0.05 mm. Also, where the note is “4 h”, the “% inhibition of edema” value is recorded as 51% and the Mean edema thickness amounted to 0.69 ± 0.02 mm. Further, for the setting “24 h”, the “% inhibition of edema” value stood at 41% and the Mean edema thickness is 0.49 ± 0.03 mm.

On to `COc1cc(/C=C/C(=O)CC(=O)/C=C/c2ccc(OC(=O)[C@@H](C)N)c(OC)c2)ccc1OC(=O)[C@@H](C)N.Cl.Cl` [Compound 37], for which the “Potency (% inhibition of edema relative to that of indomethacin reference standard)” value was determined as 110. Further, where the note is “1 h”, the “% inhibition of edema” value is on record as 61% and the Mean edema thickness came out at 0.95 ± 0.11 mm. For the same molecule, where the note is “2 h”, the “% inhibition of edema” value amounted to 62% and the Mean edema thickness was determined as 0.79 ± 0.13 mm. Further, for the setting “3 h”, the “% inhibition of edema” value was 74% and the Mean edema thickness is given as 0.46 ± 0.09 mm. For the setting “4 h”, the “% inhibition of edema” value is given as 96% and the Mean edema thickness worked out at 0.06 ± 0.01 mm. Further, where the note is “24 h”, the “% inhibition of edema” value is reported as 29% and the Mean edema thickness was determined as 0.59 ± 0.07 mm.

For `COc1cc(/C=C/C(=O)CC(=O)/C=C/c2ccc(OC(=O)[C@H](C)NC(=O)OCC3c4ccccc4-c4ccccc43)c(OC)c2)ccc1OC(=O)[C@H](C)NC(=O)OCC1c2ccccc2-c2ccccc21` [Compound 14], the “Potency (% inhibition of edema relative to that of indomethacin reference standard)” value was 64. For the same molecule, where the note is “1 h”, the “% inhibition of edema” value was 12% and the Mean edema thickness is on record as 2.12 ± 0.29 mm. Further, under “2 h”, the “% inhibition of edema” value came out at 23% and the Mean edema thickness is recorded as 1.59 ± 0.15 mm. Also, where the note is “3 h”, the “% inhibition of edema” value is recorded as 43% and the Mean edema thickness is 1.02 ± 0.17 mm. In addition, under “4 h”, the “% inhibition of edema” value stood at 56% and the Mean edema thickness was determined as 0.62 ± 0.09 mm. Where the note is “24 h”, the “% inhibition of edema” value is 51% and the Mean edema thickness was determined as 0.41 ± 0.05 mm.

As to `COc1cc(/C=C/C(=O)CC(=O)/C=C/c2ccc(OC(=O)[C@H](Cc3ccccc3)NC(=O)OC(C)(C)C)c(OC)c2)ccc1OC(=O)[C@H](Cc1ccccc1)NC(=O)OC(C)(C)C` [Compound 23], the “Potency (% inhibition of edema relative to that of indomethacin reference standard)” value amounted to 68. In addition, where the note is “1 h”, the “% inhibition of edema” value turned out to be 39% and the Mean edema thickness is given as 1.47 ± 0.16 mm. Also, for the setting “2 h”, the “% inhibition of edema” value was 44% and the Mean edema thickness amounted to 1.16 ± 0.09 mm. Under “3 h”, the “% inhibition of edema” value is recorded as 53% and the Mean edema thickness is on record as 0.85 ± 0.11 mm. Further, where the note is “4 h”, the “% inhibition of edema” value came out at 59% and the Mean edema thickness is 0.58 ± 0.03 mm. For the same molecule, under “24 h”, the “% inhibition of edema” value turned out to be 51% and the Mean edema thickness worked out at 0.41 ± 0.02 mm.

Consider `COc1cc(/C=C/C(=O)CC(=O)/C=C/c2ccc(OC(=O)[C@@H](NC(=O)OCC3c4ccccc4-c4ccccc43)C(C)C)c(OC)c2)ccc1OC(=O)[C@@H](NC(=O)OCC1c2ccccc2-c2ccccc21)C(C)C` [Compound 15], for which the “Potency (% inhibition of edema relative to that of indomethacin reference standard)” value turned out to be 61. In addition, where the note is “1 h”, the “% inhibition of edema” value stood at 22% and the Mean edema thickness is on record as 1.88 ± 0.22 mm. Also, where the note is “2 h”, the “% inhibition of edema” value is 49% and the Mean edema thickness is 1.05 ± 0.23 mm. Also, for the setting “3 h”, the “% inhibition of edema” value was found to be 50% and the Mean edema thickness came to 0.90 ± 0.17 mm. Besides, for the setting “4 h”, the “% inhibition of edema” value was found to be 53% and the Mean edema thickness was 0.66 ± 0.19 mm. Where the note is “24 h”, the “% inhibition of edema” value is listed as 47% and the Mean edema thickness is on record as 0.44 ± 0.11 mm.

For the molecule `COc1cc(/C=C/C(=O)CC(=O)/C=C/c2ccc(OC(=O)CCNC(=O)OC(C)(C)C)c(OC)c2)ccc1OC(=O)CCNC(=O)OC(C)(C)C` [Compound 27], the “Potency (% inhibition of edema relative to that of indomethacin reference standard)” value was 70. For the same molecule, under “1 h”, the “% inhibition of edema” value stood at 31% and the Mean edema thickness was 1.66 ± 0.19 mm. Besides, for the setting “2 h”, the “% inhibition of edema” value is on record as 33% and the Mean edema thickness is recorded as 1.38 ± 0.11 mm. Further, for the setting “3 h”, the “% inhibition of edema” value amounted to 45% and the Mean edema thickness turned out to be 0.99 ± 0.12 mm. Further, for the setting “4 h”, the “% inhibition of edema” value worked out at 61% and the Mean edema thickness amounted to 0.55 ± 0.07 mm. Besides, under “24 h”, the “% inhibition of edema” value was 28% and the Mean edema thickness is listed as 0.60 ± 0.03 mm.

As to `COc1cc(/C=C/C(=O)CC(=O)/C=C/c2ccc(OC(=O)CNC(=O)OCC3c4ccccc4-c4ccccc43)c(OC)c2)ccc1OC(=O)CNC(=O)OCC1c2ccccc2-c2ccccc21` [Compound 13], the “Potency (% inhibition of edema relative to that of indomethacin reference standard)” value is 91. Moreover, under “1 h”, the “% inhibition of edema” value is listed as 40% and the Mean edema thickness stood at 1.45 ± 0.15 mm. Besides, under “2 h”, the “% inhibition of edema” value is recorded as 62% and the Mean edema thickness was found to be 0.78 ± 0.16 mm. Also, for the setting “3 h”, the “% inhibition of edema” value is recorded as 74% and the Mean edema thickness came to 0.47 ± 0.11 mm. Under “4 h”, the “% inhibition of edema” value was 79% and the Mean edema thickness is recorded as 0.29 ± 0.04 mm. Moreover, under “24 h”, the “% inhibition of edema” value is 82% and the Mean edema thickness stood at 0.15 ± 0.02 mm.

For `COc1cc(/C=C/C(=O)CC(=O)/C=C/c2ccc(OC(=O)C(C)N)c(OC)c2)ccc1OC(=O)C(C)N.Cl.Cl` (stereo not drawn) [Compound 36], the “Potency (% inhibition of edema relative to that of indomethacin reference standard)” value came out at 97. In addition, where the note is “1 h”, the “% inhibition of edema” value is recorded as 54% and the Mean edema thickness was found to be 1.11 ± 0.08 mm. In addition, where the note is “2 h”, the “% inhibition of edema” value was 54% and the Mean edema thickness is given as 0.94 ± 0.09 mm. In addition, for the setting “3 h”, the “% inhibition of edema” value was found to be 55% and the Mean edema thickness was found to be 0.81 ± 0.05 mm. In addition, where the note is “4 h”, the “% inhibition of edema” value amounted to 84% and the Mean edema thickness was 0.22 ± 0.02 mm. Further, for the setting “24 h”, the “% inhibition of edema” value was 28% and the Mean edema thickness turned out to be 0.60 ± 0.06 mm.

For the origin of these results see patent publication US10660967B2, “Curcumin conjugates and methods of use thereof” (priority 2016, dated 2020).
